These results are taken from paper PMC7391726, “Fatty acid mimetic PBI-4547 restores metabolic homeostasis via GPR84 in mice with non-alcoholic fatty liver disease” (Scientific Reports, 2020).

SMILES strings stand for the structures.

The target of one experiment is T1, PPARγ (Homo sapiens, UniProt P37231).
T1 construct: glutathione S-transferase (GST)-tagged human PPAR-LBD; purchased Fisher Scientific
T1 sequence (P37231 238-503 limits assumed): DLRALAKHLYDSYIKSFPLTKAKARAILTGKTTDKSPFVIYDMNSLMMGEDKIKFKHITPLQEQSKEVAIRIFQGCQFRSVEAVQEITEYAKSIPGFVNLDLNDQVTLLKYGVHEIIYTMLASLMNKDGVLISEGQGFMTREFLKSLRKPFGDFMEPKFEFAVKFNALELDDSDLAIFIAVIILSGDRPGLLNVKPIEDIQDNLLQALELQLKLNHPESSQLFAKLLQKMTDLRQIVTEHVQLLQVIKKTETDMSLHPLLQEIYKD
The experiment is described as follows: LanthaScreen TR-FRET competitive binding assay, PPARγ LBD. The settings on record: Cheng-Prusoff; read-out: Ki inhibition constant, PPARγ LBD. The text has this:
The peroxisome proliferator-activated receptors (PPARs), PPARα, PPARδ, and PPARγ are ligand-dependent transcription factors regulated by FAs, including MCFAs, which control expression of several key metabolism-associated genes. We thus characterized the binding and transcriptional activity of PBI-4547 to these receptors. A LanthaScreen TR-FRET competitive binding assay was used to determine the binding affinity of PBI-4547 in comparison to the full control agonists GW7647 (PPARα), GW0742 (PPARδ), and rosiglitazone (PPARγ).
The LanthaScreen time-resolved fluorescence resonance energy transfer (TR-FRET) PPARα, PPARδ and PPARγ competitive binding assay (Fisher Scientific) was performed according to the manufacturer’s protocol. […] The FRET signal was measured using an Infinite M1000 microplate reader by excitation at 332 nm and emission at 520 nm for fluorescein and 490 nm for terbium. Competitive ligand binding to PPAR is detected by a test compound’s ability to displace the Fluormone pan-PPAR Green from the LBD, which results in a decrease of the 520 nm/490 nm TR-FRET ratio. The inhibition constant (Ki) of the competitor ligand was calculated by applying the Cheng-Prusoff equation.

Another experiment relates to HFD-fed Gpr84−/− mice. Description: High-fat diet (HFD) mouse model, Gpr84−/− mice. Type of experiment: in vivo. The procedure: Based on PBI-4547’s pharmacological profile and binding activities, we next used Gpr84^−/− mice fed a HFD to investigate the role of GPR84 in mediating the protective effects of PBI-4547 on glucose and FA metabolism.
WT or Gpr84^−/− mice, as previously described, (aged 10–14 weeks at the beginning of the experiment) were either fed a standard diet (STD) or a high-fat diet (HFD) (Envigo #TD.06414) for 14 weeks. At this point, mice were administered either vehicle (water) or PBI-4547 (10 mg/kg) on a daily basis for 6 (WT study) or 8 (WT vs KO study) weeks by gastric gavage, and were sacrificed thereafter. Liver and WAT tissues were fixed in 10% formalin for histological analyses or flash frozen in liquid nitrogen for RT-PCR analyses. All animal studies were reviewed and approved by the animal care and use committee of the Institut National de la Recherche Scientifique – Armand-Frappier (Laval, QC, Canada) and the University of Ottawa’s Animal Care and Veterinary Services (Ottawa, ON, Canada). Protocols were approved and undertaken according to the Canadian Council on Animal Care guidelines.
Oral glucose tolerance tests (OGTT) were completed 6 weeks after beginning of the treatments. Briefly, mice were fasted for 4–6 h, given a bolus of glucose at […] BW orally, and blood glucose values measured at 0, 15, 30, 60, 120 min. In parallel, a blood sample was obtained at 0, 15, 60 and 120 min for insulin quantification by ELISA (EMD Millipore).
After fixation in formalin, iWAT (inguinal), eWAT (epididymal) and liver sections were embedded in paraffin. Thin section of […] were stained with Hematoxylin and Eosin or Sirius red for analyses. WAT collagen deposition and liver characteristics of NAFLD were quantified histologically by a pathologist (R.C.) in a double-blinded manner. Liver histology was performed on H&E stained slides. WAT collagen deposition was scored using Picro Sirius-Red stained slides. Immunofluorescence-detection of α-SMA in liver sections was performed. Briefly, samples were deparaffinized in a series of xylenes, rehydrated in graded alcohols followed by an antigen-unmasking step by microwaving in Tris-buffer (pH 8.2). Sections were blocked with 10% donkey serum (Vector labs), 1% bovine serum albumin (Sigma) in PBS + 1%Tween for 1 h at room temperature. Slides were incubated overnight at 4 °C with an anti-mouse smooth muscle α-Actin antibody (1:300; Santa Cruz, clone #1A4). Secondary detection was performed using a donkey anti-mouse Alexa Fluor 594 (1:500; Molecular Probes), incubated for 1 h at room temperature. Slides were dehydrated and mounted with fluorescent antifade media containing DAPI (Vector labs). Images were taken at 100X and 200X magnification and representative images are shown.
RNA was extracted and purified as previously described. Real-time quantitative PCR was performed on a CFX96 Touch Real-Time PCR Detection System (Bio-Rad) using TaqMan gene expression assays (Fisher Scientific). qPCR data were analyzed using the 2-^ΔΔCt method, using Gapdh and Hprt as endogenous control. RT-qPCR data were reported as Geometric means ± SEM.

Where [1] appears, read: WT vs KO study, HFD-fed Gpr84−/−.

In the case of `CCCCCc1cc(CCCCC)cc(CC(=O)[O-])c1.[Na+]` [PBI-4547, 2-[3,5-dipentylphenyl]acetate sodium salt], on PPARγ, the Ki was determined as 88 nM. Besides, the “immunodetectable α-SMA in liver” value in the experiment with HFD-fed Gpr84−/− mice (HFD-fed GPR84−/− mice) is “further decreased”. Further, the “impact on hepatic steatosis” value in the experiment on HFD-fed Gpr84−/− mice (HFD-fed Gpr84−/− (KO) mice) is on record as “protective effect was lost”. Besides, the “expression of hepatic genes previously found regulated by PBI-4547 in WT mice” value in the experiment on HFD-fed Gpr84−/− mice (HFD-fed Gpr84−/− mice, qRT-PCR) is reported as “no longer modulated”. Moreover, in the experiment with HFD-fed Gpr84−/− mice (setting [1]), the “WAT mean adipocyte diameters and area” value was “remained unchanged”; the “fasting blood glucose levels” value is “only in WT mice”; the serum adiponectin entry is on record as “upregulated”; the serum cholesterol levels entry is listed as “remained unchanged”. For the same compound, the serum triglyceride levels result in the experiment with HFD-fed Gpr84−/− mice (setting [1]) is recorded as “only in WT mice”. Further, in the experiment on HFD-fed Gpr84−/− mice (WT vs KO study, HFD-fed Gpr84−/−, after 6 weeks), the OGTT result is “only had a significant effect on OGTT in WT mice”. Moreover, in the experiment on HFD-fed Gpr84−/− mice (mice lacking the GPR84 receptor), the “modulatory effect on pro-inflammatory and pro-fibrotic markers in WAT” value was “absent”.
